In the first assay the target is V1 receptor (Rattus norvegicus, UniProt P30560). Nature of the assay: biochemical. It counts as binding.
Sequence of V1 receptor (P30560 whole entry): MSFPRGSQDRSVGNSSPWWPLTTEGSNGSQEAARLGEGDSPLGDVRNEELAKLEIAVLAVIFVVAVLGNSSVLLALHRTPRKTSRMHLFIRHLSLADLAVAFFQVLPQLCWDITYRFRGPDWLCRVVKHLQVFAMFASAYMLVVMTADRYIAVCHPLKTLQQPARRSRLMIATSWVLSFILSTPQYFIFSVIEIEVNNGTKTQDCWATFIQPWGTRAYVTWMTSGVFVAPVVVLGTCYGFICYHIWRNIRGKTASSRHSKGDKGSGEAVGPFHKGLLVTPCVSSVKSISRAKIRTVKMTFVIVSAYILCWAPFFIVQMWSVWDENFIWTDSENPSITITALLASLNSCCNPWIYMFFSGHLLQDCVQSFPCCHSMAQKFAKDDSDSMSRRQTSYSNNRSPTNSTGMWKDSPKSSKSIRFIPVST
Details: not given
As for `CN(CCc1ccccc1)CC(O)CCCCOc1ccc(C(=O)N2CCC(N3C(=O)CCc4ccccc43)CC2)cc1` (centres unmarked) [Example 203, 1-{1-[4-(5-Hydroxy-6-[N-(2-phenylethyl)-N-methylamino]hexyloxy)benzoyl]-4-piperidinyl)-3,4-dihydrocarbostyril], inhibition was half-maximal at 49 nM (IC50).
Same read-out and setting: with `CN(CCO)CC(O)CCCCOc1ccc(C(=O)N2CCC(N3C(=O)CCc4ccccc43)CC2)cc1` (centres unmarked) [Example 204, 1-{1-[4-(5-Hydroxy-6-[N-(2-hydroxyethyl)-N-methylamino]hexyloxy)benzoyl]-4-piperidinyl}-3,4-dihydrocarbostyril] the figure was 59 nM; with `O=C(c1ccc(OCCCCC(O)CN2CCN(c3ccccc3)CC2)cc1)N1CCC(N2C(=O)CCc3ccccc32)CC1` (centres unmarked) [Example 205, 1-{1-[4-(5-Hydroxy-6-(4-phenyl-1-piperazinyl)hexyloxy)benzoyl]-4-piperidinyl}-3,4-dihydrocarbostyril], 120 nM.
Turning to `O=C(c1ccc(OCCCCCCC(O)CN2CCCC2)cc1)N1CCC(N2C(=O)CCc3ccccc32)CC1` (centres unmarked) [Example 206, 1-(1-[4-(7-Hydroxy-8-(1-pyrrolidinyl)octyloxy)benzoyl]-4-piperidinyl)-3,4-dihydrocarbostyril], it took 30 nM to reach half-maximal inhibition (IC50).
Still for that read-out and setting: with `CSCCC(NC(C)=O)C(=O)NCCCOc1ccc(C(=O)N2CCC(N3C(=O)CCc4ccccc43)CC2)cc1` (centres unmarked) [Example 207, 1-(1-[4-(3-(2-Acetylamino-4-methylthiobutyrylamino)propoxy)benzoyl]-4-piperidinyl}-3,4-dihydrocarbostyril] the figure was 70 nM.
The same measure, in the same setting: with `CC(=O)N[C@H](Cc1c[nH]cn1)C(=O)NCCCOc1ccc(C(=O)N2CCC(N3C(=O)CCc4ccccc43)CC2)cc1` [Example 208, 1-{1-[4-(3-[2-(R)-Acetylamino-2-(4(1H)-imidazolyl)methylacetylamino]propoxy)benzoyl]-4-piperidinyl}-3,4-dihydrocarbostyril] the figure was 100 nM; with `O=C(CCCCCOc1ccc(C(=O)N2CCC(N3C(=O)CCc4ccccc43)CC2)cc1)NC1CCNCC1` [Example 210, 1-{1-[4-(5-(4-Piperidinyl)aminocarbonylpentyloxy)benzoyl]-4-piperidinyl}-3,4-dihydrocarbostyril], 23 nM; with `NC(=O)OCCCCCCOc1ccc(C(=O)N2CCC(N3C(=O)CCc4ccccc43)CC2)cc1` [Example 212, 1-{1-[4-(6-Carbamoyloxyhexyloxy)benzoyl]-4-piperidinyl}-3,4-dihydrocarbostyril], 160 nM.
On to `CCN(CC)CCCCCCOc1ccc(C(=O)N2CCC(N3C(=O)CCc4ccccc43)CC2)cc1` [Example 213, 1-{1-[4-(6-Diethylaminohexyloxy)benzoyl]-4-piperidinyl}-3,4-dihydrocarbostyril], for which the IC50 (in general, the concentration that inhibits the measured activity by half) stood at 59 nM.
`O=C(c1ccc(OCCCCCCN2CCCC2)cc1)N1CCC(N2C(=O)CCc3ccccc32)CC1` [Example 214, 1-{1-[4-(6-(1-Pyrrolidinyl)hexyloxy)benzoyl]-4-piperidinyl}-3,4-dihydrocarbostyril.] had an IC50 of 58 nM.
`CCOc1ccc(C(=O)N2CCC(N3C(=O)CCc4c(C)cccc43)CC2)c(OC)c1` [Example 216, 5-Methyl-1-[1-(2-methoxy-4-ethoxybenzoyl)-4-piperidinyl]-3,4-dihydrocarbostyril] had an IC50 of 41 nM. The IC50 values of the last two compounds are within 1.5-fold of each other.
Still for that read-out and setting: with `CC(C)NCC(O)CCCCOc1ccc(C(=O)N2CCC(N3C(=O)CCc4ccccc43)CC2)cc1` (centres unmarked) [Example 217, 1-{1-[4-(5-Hydroxy-6-isopropylaminohexyloxy)benzoyl]-4-piperidinyl}-3,4-dihydrocarbostyril] the figure was 53 nM; with `CCN(CC(O)CCCCOc1ccc(C(=O)N2CCC(N3C(=O)CCc4ccccc43)CC2)cc1)CC1CCCCO1` (centres unmarked) [Example 218, 1-{1-[4-(5-Hydroxy-6-[N-ethyl-N-(2-tetrahydropyranylmethyl)amino]hexyloxy)benzoyl]-4-piperidinyl}-3,4-dihydrocarbostyril], 44 nM; with `O=C(c1ccc(OCCCCC(O)CN2CCC[C@H]2CO)cc1)N1CCC(N2C(=O)CCc3ccccc32)CC1` (some centres unmarked) [Example 220], 20 nM.
In turn, `O=C(NCCCC[C@H](NC(=O)OCc1ccccc1)C(=O)NCCCOc1ccc(C(=O)N2CCC(N3C(=O)CCc4ccccc43)CC2)cc1)OCc1ccccc1` [Example 222, 1-[1-{4-[3-(S)-{N,N'76434 -Di(benzyloxycarbonyl)lysyl)aminopropoxy]benzoyl}-4-piperidinyl]-3,4-dihydrocarbostyril] returned an IC50 of 650 nM.
Turning to `N[C@@H](Cc1ccc(O)cc1)C(=O)NCCCOc1ccc(C(=O)N2CCC(N3C(=O)CCc4ccccc43)CC2)cc1` [Example 223, 1-[1-{4-[3-(S)-Tyrosylaminopropoxy]benzoyl}-4-piperidinyl]-3,4-dihydrocarbostyril], half-maximal inhibition (IC50) was put at 72 nM.
The same measure, in the same setting: with `O=C(NCCCOc1ccc(C(=O)N2CCC(N3C(=O)CCc4ccccc43)CC2)cc1)[C@@H]1CCCN1` [Example 224, 1-{1-[4-(3-(S)-Prolylaminopropoxy)benzoyl]-4-piperidinyl]-3,4-dihydrocarbostyril] the figure was 94 nM.
Consider `CC(C)[C@@H](N)C(=O)NCCCOc1ccc(C(=O)N2CCC(N3C(=O)CCc4ccccc43)CC2)cc1` [Example 225, 1-[1-{4-(3-(R)-Valylaminopropoxy]benzoyl]-4-piperidinyl]-3,4-dihydrocarbostyril], for which the midpoint of inhibition, the IC50, lay at 99 nM.
The compound `O=C(N[C@@H](CO)C(=O)NCCCOc1ccc(C(=O)N2CCC(N3C(=O)CCc4ccccc43)CC2)cc1)OCc1ccccc1` [Example 226, 1-[1-{4-(3-(S)-{N-(Benzyloxycarbonyl)seryl}aminopropoxy]benzoyl)-4-piperidinyl]-3,4-dihydrocarbostyril] returned an IC50 of 480 nM.
As to `C=CCN1CCN(CCCCOc2ccc(C(=O)N3CCC(N4C(=O)CCc5ccccc54)CC3)cc2)CC1` [Example 227, 1-{1-(4-[4-(4-Allyl-1-piperazinyl)butoxy]benzoyl)-4-piperidinyl)-3,4-dihydrocarbostyril], the IC50 turned out to be 130 nM.
Still for that read-out and setting: with `O=C(CCl)NCCCCOc1ccc(C(=O)N2CCC(N3C(=O)CCc4ccccc43)CC2)cc1` [Example 228, 1-{1-(4-[4-(2-Chloroacetylamino)butoxy]benzoyl)-4-piperidinyl)-3,4-dihydrocarbostyril] the figure was 200 nM; with `CC(=O)OCC(=O)NCCCCCOc1ccc(C(=O)N2CCC(N3C(=O)CCc4ccccc43)CC2)cc1` [Example 229, 1-{1-(4-[5-(2-Acetoxyacetylamino)pentyloxy]benzoyl)-4-piperidinyl]-3,4-dihydrocarbostyril], 200 nM.
The same measure, in the same setting: with `O=C(CO)NCCCCCOc1ccc(C(=O)N2CCC(N3C(=O)CCc4ccccc43)CC2)cc1` [Example 230, 1-[1-(4-[5-(2-Hydroxyacetylamino)pentyloxy]benzoyl)-4-piperidinyl)-3,4-dihydrocarbostyril] the figure was 180 nM.
Still for that read-out and setting: with `O=C(NCCCCOc1ccc(C(=O)N2CCC(N3C(=O)CCc4ccccc43)CC2)cc1)C1CCNCC1` [Example 231, 1-[1-(4-[4-(4-Piperidinylcarbonylamino)butoxy]benzoyl)-4-piperidinyl)-3,4-dihydrocarbostyril] the figure was 41 nM; with `CC(=O)N1CCC(C(=O)NCCCCOc2ccc(C(=O)N3CCC(N4C(=O)CCc5ccccc54)CC3)cc2)CC1` [Example 232, 1-{1-(4-[4-(1-Acetyl-4-piperidinylcarbonylamino)butoxy]benzoyl)-4-piperidinyl)-3,4-dihydrocarbostyril], 120 nM; with `O=C(c1ccc(OCCCCCN2CCN(c3ncccn3)CC2)cc1)N1CCC(N2C(=O)CCc3ccccc32)CC1` [Example 233, 1-{1-(4-[5-(4-[2-Pyrimidyl]-1-piperazinyl)pentyloxy]benzoyl)-4-piperidinyl}-3,4-dihydrocarbostyril], 210 nM.
With `O=C(c1ccc(OCCCCCN2CCN(c3ccccn3)CC2)cc1)N1CCC(N2C(=O)CCc3ccccc32)CC1` [Example 234, 1-{1-(4-[5-(4-[2-Pyridyl]-1-piperazinyl)pentyloxy]benzoyl)-4-piperidinyl}-3,4-dihydrocarbostyril], the IC50 stood at 180 nM.
`CC[N+](CC)(CC)CCCCCOc1ccc(C(=O)N2CCC(N3C(=O)CCc4ccccc43)CC2)cc1` [Example 235, 1-{1-[4-(5-Triethylammouniumpentyloxy)benzoyl]-4-piperidinyl)-3,4-dihydrocarbostyril bromide] showed an IC50 of 66 nM.
Take `O=C(c1ccc(OCCCCCN2CCC[C@H]2CO)cc1)N1CCC(N2C(=O)CCc3ccccc32)CC1` [Example 238, 1-(1-(4-[5-(2-(S)-Hydroxymethyl-1-pyrrolidinyl)pentyloxy]benzoyl)-4-piperidinyl}-3,4-dihydrocarbostyril]: the IC50 was 33 nM.
Same read-out and setting: with `COC(=O)[C@@H]1CCCN1CCCCCOc1ccc(C(=O)N2CCC(N3C(=O)CCc4ccccc43)CC2)cc1` [Example 239, 1-{1-(4-[5-(2-(S)-Methoxycarbonyl-1-pyrrolidinyl)pentyloxy]benzoyl)-4-piperidinyl}-3,4-dihydrocarbostyril] the figure was 150 nM; with `O=C(c1ccc(OCCCCCN2CCCC(O)C2)cc1)N1CCC(N2C(=O)CCc3ccccc32)CC1` (centres unmarked) [Example 240, 1-{1-(4-[5-(3-Hydroxy-1-piperidinyl)pentyloxy]benzoyl)-4-piperidinyl}-3,4-dihydrocarbostyril], 48 nM; with `O=C(c1ccc(OCCCCCN2CCCCC2CO)cc1)N1CCC(N2C(=O)CCc3ccccc32)CC1` (centres unmarked) [Example 241, 1-{1-(4-[5-(2-Hydroxymethyl-1-piperidinyl)pentyloxy]benzoyl)-4-piperidinyl}-3,4-dihydrocarbostyril], 21 nM.

Still in this assay, the particulars now being: [H]3-Arg-vasopressin 2×10^-10 M, rat liver plasma membrane, 37° C., 10 minutes, pH 8.0.
Compound `CN(CC(O)CCCCOc1ccc(C(=O)N2CCC(N3C(=O)CCc4ccccc43)CC2)cc1)CC(O)c1ccccc1` (centres unmarked) [Example 219, 1-{1-[4-(5-Hydroxy-6-[N-methyl-N-(2-hydroxy-4-phenylethyl)amino]hexyloxy)benzoyl]-4-piperidinyl}-3,4-dihydrocarbostyril] gave an IC50 of 60 nM.
The same measure, in the same setting: with `O=C(c1ccc(OCCCCCn2ccnc2)cc1)N1CCC(N2C(=O)CCc3ccccc32)CC1` [Example 236] the figure was 260 nM; with `O=C(c1ccc(OCCCCCn2cncn2)cc1)N1CCC(N2C(=O)CCc3ccccc32)CC1` [Example 237], 75 nM.

Source of the values: US5436254A, “Carbostyril derivatives” (Otsuka Pharmaceutical Company, Ltd., priority 1989, dated 1995).
